# Results: patent US20020055470A1, “Circumvention of human tumor drug resistance” (CITY OF HOPE, priority 1987, published 2002)
# Like-named read-outs stand apart in the source and are kept apart here.
# How the values were obtained:
# Type in all cases: cell-based, human
# CEMMTX = experiment: Cytotoxicity by continuous exposure in CEM cells
# Protocol: CEM cells were made 15.8-fold resistant to methotrexate (MTX) by weekly (2 hr) pulses and cloned in soft agar. The optimal growth requirements for the CEMS/S and CEM/MTX for folinic acid cells were 2 nM and 10 nM. If the cells were grown in higher concentrations of folinic acid (10^−7 M), both cell lines were correspondingly more resistant to MTX. In contrast, fluoropyrimidine cytotoxicity was enhanced in both cell lines with increasing concentrations of folinic acid from 10^−7 M to 10^−6 M. At concentrations of folinic acid that are not optimal for cell growth, both CEM cell lines are hypersensitive to fluoropyrimidines. In addition, CEM/MTX cells are more hypersensitive to fluoropyrimidines than CEM/S cells at (10^−8 M) folinic acid or lower concentrations.
# (§1) There was an increase in DHFR enzyme activity (11.07-fold) due to an eight-fold increase in DHFR gene amplification and expression in CEM/MTX cells. There was also a corresponding 2-fold increase in thymidine kinase (TK) enzyme activity and TK gene expression in CEM/MTX cells. […] CEM cells untreated with nucleoside analog were the controls (100%). The experiment was performed three separate times in duplicate.
# A2780DDP [1] = experiment: Inhibition of cell growth (cells counted on Coulter Counter after six days)
# Protocol: The experiment was conducted in triplicate in the manner described with respect to Table I. […]
# (§2) Table VI includes EC50 data further exemplifying the invention. The data reported by Table VI was obtained by substantially the same procedure as that described with respect to Table III. In Table VI, “(C)” indicates continuous exposure, “(1 h)” and “(2 h)” indicate exposure for 1 hour and 2 hours; “HU” indicates hydroxyurea.
# K562S = experiment: Inhibition of cell growth, Table VI; settings: (C) continuous exposure
# Protocol: as §2
# K562-araC = experiment: Inhibition of cell growth, Table VI; settings: K562-araC; (C) continuous exposure
# Protocol: as §2
# HCF-7 DDP = experiment: Inhibition of cell growth, Table VI; settings: HCF-7 DDP; (C) continuous exposure
# Protocol: as §2
# HCT8S = experiment: Inhibition of cell growth (cells counted on Coulter Counter after six days); settings: (C) continuous exposure, read-out: EC50
# Protocol: as §2
# HCT8DDP = experiment: as above; settings: HCT8-DDP; (C) continuous exposure; read-out: EC50
# Protocol: as §2
# K562-DDP = experiment: Inhibition of cell growth, Table VI; settings: K562-DDP; (C) continuous exposure
# CEMDDP = experiment: Cytotoxicity by continuous exposure in CEM cells
# A2780DDP [2] = experiment: Dual labeled (14C/3H) DNA synthesis and degradation in response to cisplatin; incorporation of labelled nucleoside analogs; settings: for Incorporation of labelled nucleoside analog into macromolecules: A2780DDP; for 3H-AZT/DNA A2780DDP: cisplatin 20 μM
# Excerpt: A dual labeled (^14C/^3H) experiment was designed to measure simultaneously DNA synthesis and degradation in response to cisplatin.
# A2780S [3] = experiment: Dual labeled (14C/3H) DNA synthesis and degradation in response to cisplatin; settings: for 3H-AZT/DNA A2780S: cisplatin 20 μM
# Protocol: (§3) A dual labeled (^14C/^3H) experiment was designed to measure simultaneously DNA synthesis and degradation in response to cisplatin. […] A2780S cells respond to cisplatin with a modest degradation (10%) of (^14C) DNA over 3 hrs. In contrast, A2780DDP degradation 40.5% of the (^14C) DNA in 3 hrs. […] Transplatin at equimolar concentrations (20 μM) had no influence on DNA synthesis or degradation in A2780 cells.
# K562-VP16 = experiment: Inhibition of cell growth, Table VI; settings: (C) continuous exposure
# CEMS = experiment: Cytotoxicity by continuous exposure in CEM cells
# Protocol: as §1
# A2780S [4] = experiment: Inhibition of cell growth (cells counted on Coulter Counter after six days)
# Protocol: The experiment was conducted in triplicate in the manner described with respect to Table I.
# A2780 cells were well-plated (35 mm disnes) and 24 hours later the cells were treated with cisplatin for one hour, washed out and then treated with 6 concentrations of from 1 μM to 100 μM increased in equal increments of a nucleoside analog in saline. Cells were then washed and incubated for six days. The cells were counted on a Coulter Counter and the experiment was done in triplicate.
# as §2
# HCF7S = experiment: Inhibition of cell growth, Table VI; settings: (C) continuous exposure
# A2780 cells = experiment: Dual labeled (14C/3H) DNA synthesis and degradation; settings: 20 μM
# Protocol: as §3
compound,measurement,setting,value
CN(Cc1cnc2nc(N)nc(N)c2n1)c1ccc(C(=O)N[C@@H](CCC(=O)O)C(=O)O)cc1 [methotrexate],fold resistance of CEM/MTX cells,CEMMTX; CEM cells made resistant by weekly (2 hr) pulses,15.8 fold
"Cc1cn([C@H]2C[C@H](N=[N+]=[N-])[C@@H](CO)O2)c(=O)[nH]c1=O [AZT, 3′ azido-2′, 3′ dideoxythymidine]",EC50,"A2780DDP [1]; A2780 DDP, (C) continuous exposure, read-out: EC50",510 µM
same,EC50,"A2780DDP [1]; continuous exposure, proliferation during 6 days, mean + SD, read-out: EC50 A2780DDP",510 µM
same,EC50,K562S,125 µM
same,EC50,K562-araC,70 µM
same,EC50,HCF-7 DDP,10 µM
same,EC50,HCT8S,5.5 µM
same,EC50,HCT8DDP,11 µM
same,EC50,K562-DDP,150 µM
same,EC50,CEMDDP,N.E.**
same,Incorporation of labelled nucleoside analog into macromolecules,A2780DDP [2]; 0 min after cisplatin (20 μM) treatment,26.96
same,Incorporation of labelled nucleoside analog into macromolecules,A2780DDP [2]; 45 min after cisplatin (20 μM) treatment,31.62
same,Incorporation of labelled nucleoside analog into macromolecules,A2780DDP [2]; 90 min after cisplatin (20 μM) treatment,32.31
same,Incorporation of labelled nucleoside analog into macromolecules,A2780DDP [2]; 180 min after cisplatin (20 μM) treatment,37.96
same,3H-AZT/DNA A2780DDP,A2780DDP [2]; treatment time 0 min,26.96
same,3H-AZT/DNA A2780DDP,A2780DDP [2]; treatment time 45 min,31.62
same,3H-AZT/DNA A2780DDP,A2780DDP [2]; treatment time 90 min,32.31
same,3H-AZT/DNA A2780DDP,A2780DDP [2]; treatment time 180 min,37.96
same,increased incorporation of (3H) AZT into TCA material,"A2780S [3]; A2780S, in response to cisplatin 20 μM",18.8%
same,3H-AZT/DNA A2780S,A2780S [3]; treatment time 0 min,7.79
same,3H-AZT/DNA A2780S,A2780S [3]; treatment time 45 min,6.27
same,3H-AZT/DNA A2780S,A2780S [3]; treatment time 90 min,7.23
same,3H-AZT/DNA A2780S,A2780S [3]; treatment time 180 min,9.25
same,EC50,K562-VP16,200 µM
same,EC50,"CEMMTX; CEM/MTX cells, continuous exposure (1-160 μM)",25 µM
same,cytotoxicity,"CEMS; CEM/S cells, continuous exposure up to 160 μM",minimal cytotoxicity
same,EC50,"CEMS; CEMS, continuous exposure",N.E.**
same,EC50,"A2780S [4]; A2780S, (C) continuous exposure, read-out: EC50",10 µM
same,EC50,"A2780S [4]; continuous exposure, proliferation during 6 days, mean + SD, read-out: EC50 A2780S",10 µM
same,EC50,HCF7S,65 µM
N.N.[Cl][Pt+2][Cl] [Transplatin],influence on DNA synthesis or degradation,A2780 cells,no influence
